{"source": "ChEMBL document CHEMBL1255495", "about": "“Experimental conditions that enhance potency of an antibacterial oligo-acyl-lysyl” (2010)", "format_in_all_cases": "functional", "key": {"Escherichia coli [1]": {"test_system": "Escherichia coli", "test": "Antibacterial activity against Escherichia coli O157:H7 ATCC 43894 after 24 hrs at 37 degC by microdilution method", "conditions": "O157:H7 ATCC 43894, 24 h"}, "Escherichia coli [2]": {"test_system": "Escherichia coli", "test": "Antibacterial activity against Escherichia coli O157:H7 ATCC 43894 after 24 hrs at 48 degC by microdilution method", "conditions": "O157:H7 ATCC 43894, 24 h"}, "Listeria monocytogenes [3]": {"test_system": "Listeria monocytogenes", "test": "Antibacterial activity against Listeria monocytogenes ATCC 19115 at pH 3.5 after 24 hrs by microdilution method", "conditions": "ATCC 19115, 24 h"}, "Listeria monocytogenes [4]": {"test_system": "Listeria monocytogenes", "test": "Antibacterial activity against Listeria monocytogenes ATCC 19115 at pH 5.5 after 24 hrs by microdilution method", "conditions": "ATCC 19115, 24 h"}, "Listeria monocytogenes [5]": {"test_system": "Listeria monocytogenes", "test": "Antibacterial activity against Listeria monocytogenes ATCC 19115 at pH 7 after 24 hrs by microdilution method", "conditions": "ATCC 19115, 24 h"}, "Listeria monocytogenes [6]": {"test_system": "Listeria monocytogenes", "test": "Antibacterial activity against Listeria monocytogenes ATCC 19115 at pH 8.5 after 24 hrs by microdilution method", "conditions": "ATCC 19115, 24 h"}, "Listeria monocytogenes [7]": {"test_system": "Listeria monocytogenes", "test": "Antibacterial activity against Listeria monocytogenes ATCC 19115 after 24 hrs by microdilution method in presence of 85 mM NaCl", "conditions": "ATCC 19115, 24 h"}, "Listeria monocytogenes [8]": {"test_system": "Listeria monocytogenes", "test": "Antibacterial activity against Listeria monocytogenes ATCC 19115 after 24 hrs by microdilution method in presence of 170 mM NaCl", "conditions": "ATCC 19115, 24 h"}, "Listeria monocytogenes [9]": {"test_system": "Listeria monocytogenes", "test": "Antibacterial activity against Listeria monocytogenes ATCC 19115 after 24 hrs by microdilution method in presence of 260 mM NaCl", "conditions": "ATCC 19115, 24 h"}, "Listeria monocytogenes [10]": {"test_system": "Listeria monocytogenes", "test": "Antibacterial activity against Listeria monocytogenes ATCC 19115 after 24 hrs by microdilution method in presence of 515 mM NaCl", "conditions": "ATCC 19115, 24 h"}, "Listeria monocytogenes [11]": {"test_system": "Listeria monocytogenes", "test": "Antibacterial activity against Listeria monocytogenes ATCC 19115 after 24 hrs by microdilution method in presence of 1030 mM NaCl", "conditions": "ATCC 19115, 24 h"}, "Listeria monocytogenes [12]": {"test_system": "Listeria monocytogenes", "test": "Antibacterial activity against Listeria monocytogenes ATCC 19115 after 24 hrs by microdilution method in presence of 20 mM MgCl2", "conditions": "ATCC 19115, 24 h"}, "Listeria monocytogenes [13]": {"test_system": "Listeria monocytogenes", "test": "Antibacterial activity against Listeria monocytogenes ATCC 19115 after 24 hrs by microdilution method in presence of 40 mM MgCl2", "conditions": "ATCC 19115, 24 h"}, "Listeria monocytogenes [14]": {"test_system": "Listeria monocytogenes", "test": "Antibacterial activity against Listeria monocytogenes ATCC 19115 after 24 hrs by microdilution method in presence of 80 mM MgCl2", "conditions": "ATCC 19115, 24 h"}, "Listeria monocytogenes [15]": {"test_system": "Listeria monocytogenes", "test": "Antibacterial activity against Listeria monocytogenes ATCC 19115 after 24 hrs by microdilution method in presence of 160 mM MgCl2", "conditions": "ATCC 19115, 24 h"}, "Listeria monocytogenes [16]": {"test_system": "Listeria monocytogenes", "test": "Antibacterial activity against Listeria monocytogenes ATCC 19115 after 72 hrs at 4 degC by microdilution method", "conditions": "ATCC 19115, 72 h"}, "Listeria monocytogenes [17]": {"test_system": "Listeria monocytogenes", "test": "Antibacterial activity against Listeria monocytogenes ATCC 19115 after 24 hrs at 25 degC by microdilution method", "conditions": "ATCC 19115, 24 h"}, "Listeria monocytogenes [18]": {"test_system": "Listeria monocytogenes", "test": "Antibacterial activity against Listeria monocytogenes ATCC 19115 after 24 hrs at 37 degC by microdilution method", "conditions": "ATCC 19115, 24 h"}, "Listeria monocytogenes [19]": {"test_system": "Listeria monocytogenes", "test": "Antibacterial activity against Listeria monocytogenes ATCC 19115 after 24 hrs at 48 degC by microdilution method", "conditions": "ATCC 19115, 24 h"}, "Staphylococcus aureus [20]": {"test_system": "Staphylococcus aureus", "test": "Antibacterial activity against methicillin-resistant Staphylococcus aureus isolate 15903 at pH 5.5 after 24 hrs by microdilution method", "conditions": "isolate 15903, 24 h"}, "Staphylococcus aureus [21]": {"test_system": "Staphylococcus aureus", "test": "Antibacterial activity against methicillin-resistant Staphylococcus aureus isolate 15903 at pH 7 after 24 hrs by microdilution method", "conditions": "isolate 15903, 24 h"}, "Staphylococcus aureus [22]": {"test_system": "Staphylococcus aureus", "test": "Antibacterial activity against methicillin-resistant Staphylococcus aureus isolate 15903 at pH 8.5 after 24 hrs by microdilution method", "conditions": "isolate 15903, 24 h"}, "Staphylococcus aureus [23]": {"test_system": "Staphylococcus aureus", "test": "Antibacterial activity against methicillin-resistant Staphylococcus aureus isolate 15903 after 24 hrs by microdilution method in presence of 85 mM NaCl", "conditions": "isolate 15903, 24 h"}, "Staphylococcus aureus [24]": {"test_system": "Staphylococcus aureus", "test": "Antibacterial activity against methicillin-resistant Staphylococcus aureus isolate 15903 after 24 hrs by microdilution method in presence of 170 mM NaCl", "conditions": "isolate 15903, 24 h"}, "Staphylococcus aureus [25]": {"test_system": "Staphylococcus aureus", "test": "Antibacterial activity against methicillin-resistant Staphylococcus aureus isolate 15903 after 24 hrs by microdilution method in presence of 260 mM NaCl", "conditions": "isolate 15903, 24 h"}, "Staphylococcus aureus [26]": {"test_system": "Staphylococcus aureus", "test": "Antibacterial activity against methicillin-resistant Staphylococcus aureus isolate 15903 after 24 hrs by microdilution method in presence of 515 mM NaCl", "conditions": "isolate 15903, 24 h"}, "Staphylococcus aureus [27]": {"test_system": "Staphylococcus aureus", "test": "Antibacterial activity against methicillin-resistant Staphylococcus aureus isolate 15903 after 24 hrs by microdilution method in presence of 1030 mM NaCl", "conditions": "isolate 15903, 24 h"}, "Escherichia coli [28]": {"test_system": "Escherichia coli", "test": "Ratio of MIC for Escherichia coli O157:H7 ATCC 43894 in presence of 85 mM NaClsto MIC for Escherichia coli O157:H7 ATCC 43894 at pH 8.5 after 24 hrs at 48 degC in presence of 85 mM NaCl"}, "Staphylococcus aureus [29]": {"test_system": "Staphylococcus aureus", "test": "Antibacterial activity against methicillin-resistant Staphylococcus aureus isolate 15903 after 24 hrs at 37 degC by microdilution method", "conditions": "isolate 15903, 24 h"}}}
{"compound": "CCCCCCCCCCCC(=O)N[C@@H](CCCCN)C(=O)NCCCCCCCC(=O)N[C@@H](CCCCN)C(=O)NCCCCCCCC(=O)N[C@@H](CCCCN)C(=O)NCCCCCCCC(=O)N[C@@H](CCCCN)C(=O)NCCCCCCCC(=O)N[C@@H](CCCCN)C(=O)NCCCCCCCC(=O)N[C@@H](CCCCN)C(=O)NCCCCCCCC(=O)N[C@@H](CCCCN)C(=O)NCCCCCCCC(=O)N[C@@H](CCCCN)C(N)=O", "values": [{"measurement": "MIC", "setting": "Escherichia coli [1]", "value": 3.1, "unit": "µM"}, {"measurement": "MIC", "setting": "Escherichia coli [2]", "value": 1.6, "unit": "µM"}, {"measurement": "MIC", "setting": "Listeria monocytogenes [3]", "value": "> 50", "unit": "µM"}, {"measurement": "MIC", "setting": "Listeria monocytogenes [4]", "value": 3.1, "unit": "µM"}, {"measurement": "MIC", "setting": "Listeria monocytogenes [5]", "value": 1.6, "unit": "µM"}, {"measurement": "MIC", "setting": "Listeria monocytogenes [6]", "value": 0.8, "unit": "µM"}, {"measurement": "MIC", "setting": "Listeria monocytogenes [7]", "value": 1.6, "unit": "µM"}, {"measurement": "MIC", "setting": "Listeria monocytogenes [8]", "value": 3.1, "unit": "µM"}, {"measurement": "MIC", "setting": "Listeria monocytogenes [9]", "value": 3.1, "unit": "µM"}, {"measurement": "MIC", "setting": "Listeria monocytogenes [10]", "value": 6.3, "unit": "µM"}, {"measurement": "MIC", "setting": "Listeria monocytogenes [11]", "value": 12.5, "unit": "µM"}, {"measurement": "MIC", "setting": "Listeria monocytogenes [12]", "value": 3.1, "unit": "µM"}, {"measurement": "MIC", "setting": "Listeria monocytogenes [13]", "value": 6.3, "unit": "µM"}, {"measurement": "MIC", "setting": "Listeria monocytogenes [14]", "value": 12.5, "unit": "µM"}, {"measurement": "MIC", "setting": "Listeria monocytogenes [15]", "value": 25, "unit": "µM"}, {"measurement": "MIC", "setting": "Listeria monocytogenes [16]", "value": 3.1, "unit": "µM"}, {"measurement": "MIC", "setting": "Listeria monocytogenes [17]", "value": 3.1, "unit": "µM"}, {"measurement": "MIC", "setting": "Listeria monocytogenes [18]", "value": 1.6, "unit": "µM"}, {"measurement": "MIC", "setting": "Listeria monocytogenes [19]", "value": 1.6, "unit": "µM"}, {"measurement": "MIC", "setting": "Staphylococcus aureus [20]", "value": "> 50", "unit": "µM"}, {"measurement": "MIC", "setting": "Staphylococcus aureus [21]", "value": 12.5, "unit": "µM"}, {"measurement": "MIC", "setting": "Staphylococcus aureus [22]", "value": 1.6, "unit": "µM"}, {"measurement": "MIC", "setting": "Staphylococcus aureus [23]", "value": 12.5, "unit": "µM"}, {"measurement": "MIC", "setting": "Staphylococcus aureus [24]", "value": 50, "unit": "µM"}, {"measurement": "MIC", "setting": "Staphylococcus aureus [25]", "value": "> 50", "unit": "µM"}, {"measurement": "MIC", "setting": "Staphylococcus aureus [26]", "value": "> 50", "unit": "µM"}, {"measurement": "MIC", "setting": "Staphylococcus aureus [27]", "value": "> 50", "unit": "µM"}, {"measurement": "Ratio", "setting": "Escherichia coli [28]", "value": 16}, {"measurement": "MIC", "setting": "Staphylococcus aureus [29]", "value": 12.5, "unit": "µM"}]}
